Drawing on patent US8372823B2, “Tetracyclic inhibitors of fatty acid amide hydrolase” (The Scripps Research Institute, priority 2007, dated 2013), this text covers Ki, melting point and IC50 for 21 compounds.

Data set [1] deals with T1, purified recombinant rat FAAH (Rattus norvegicus, UniProt P97612).
T1 construct: made in house; host or cells: E. coli
T1 sequence (P97612 1-579): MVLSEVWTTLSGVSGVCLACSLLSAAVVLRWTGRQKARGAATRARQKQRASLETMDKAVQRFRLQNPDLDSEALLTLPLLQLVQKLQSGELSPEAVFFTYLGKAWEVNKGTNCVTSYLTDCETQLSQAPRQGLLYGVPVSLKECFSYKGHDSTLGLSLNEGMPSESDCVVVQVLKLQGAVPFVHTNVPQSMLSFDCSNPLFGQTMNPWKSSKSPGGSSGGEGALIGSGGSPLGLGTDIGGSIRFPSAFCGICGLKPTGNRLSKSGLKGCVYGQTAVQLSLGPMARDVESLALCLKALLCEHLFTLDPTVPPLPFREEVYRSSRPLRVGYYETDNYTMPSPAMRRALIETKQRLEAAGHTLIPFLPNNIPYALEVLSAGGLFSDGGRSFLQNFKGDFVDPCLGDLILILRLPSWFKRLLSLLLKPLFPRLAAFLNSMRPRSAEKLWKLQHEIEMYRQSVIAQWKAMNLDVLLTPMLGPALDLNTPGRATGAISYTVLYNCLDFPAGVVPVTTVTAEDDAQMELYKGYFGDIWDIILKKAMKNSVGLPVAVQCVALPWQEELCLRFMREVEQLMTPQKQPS
Put plainly: FAAH enzyme assay, Ki (Dixon plot), rat FAAH. Type of data set: biochemical.

Data set [2] concerns the target T2, FAAH (Homo sapiens, UniProt O00519).
T2 sequence (O00519 1-579): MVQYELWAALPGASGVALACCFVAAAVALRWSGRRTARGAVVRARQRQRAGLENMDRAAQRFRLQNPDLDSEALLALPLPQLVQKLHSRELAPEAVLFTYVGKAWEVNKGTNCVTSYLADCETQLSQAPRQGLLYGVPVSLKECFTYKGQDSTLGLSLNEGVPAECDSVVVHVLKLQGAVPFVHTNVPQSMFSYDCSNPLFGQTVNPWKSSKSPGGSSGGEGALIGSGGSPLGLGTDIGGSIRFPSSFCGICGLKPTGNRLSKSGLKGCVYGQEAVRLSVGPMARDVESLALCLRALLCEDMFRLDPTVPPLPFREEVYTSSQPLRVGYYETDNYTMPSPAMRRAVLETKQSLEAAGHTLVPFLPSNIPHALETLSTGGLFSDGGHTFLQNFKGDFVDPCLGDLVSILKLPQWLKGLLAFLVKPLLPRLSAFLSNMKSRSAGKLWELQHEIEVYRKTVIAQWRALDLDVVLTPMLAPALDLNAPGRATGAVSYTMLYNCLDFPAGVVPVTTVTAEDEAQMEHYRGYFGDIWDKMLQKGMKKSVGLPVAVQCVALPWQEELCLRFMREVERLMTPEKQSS
Put plainly: FAAH enzyme assay, Ki (Dixon plot), human FAAH. Type of data set: biochemical. To be noted: solubilized COS-7 membrane extracts, human FAAH cDNA; 14C-oleamide hydrolysis; pH 9.0; 20-23° C. Set-up: expressed in transfected cells; host or cells: COS-7 (transient transfection), solubilized membrane extracts.

For the next data set, the target named is T3, rat FAAH (Rattus norvegicus, UniProt P97612).
T3 construct: made in house; host or cells: E. coli
T3 sequence (P97612 1-579): T1 sequence (P97612 1-579)
Put plainly: FAAH inhibition IC50, rat. The class given is biochemical. To be noted: inhibition at 3-5 test compound concentrations. On the procedure:
(§1) Enzyme assays were performed at 20-23° C. with purified recombinant rat FAAH expressed in E. coli (Patricelli, M. P.; Lashuel, H. A.; et al. Biochemistry 1998, 37, 15177-15187) (unless indicated otherwise) or with solubilized COS-7 membrane extracts from cells transiently transfected with human FAAH cDNA (Giang, D. K.; Cravatt, B. F. Proc. Natl. Acad. Sci. U.S.A. 1997, 94, 2238-2242) (where specifically indicated) in a buffer of 125 mM Tris/1 mM EDTA/0.2% glycerol/0.02% Triton X-100/0.4 mM Hepes, pH 9.0 buffer (Patricelli, M. P.; Patterson, J. P.; et al. Bioorg. Med. Chem. Lett. 1998, 8, 613-618). […] NT=no data available.
(§2) IC50 values were determined from the inhibition observed at 3-5 different test compound concentrations (from three or more trials at each concentration) using the formula IC50=[I]/[K0/Ki)-1], where K0 is the control reaction rate without inhibitor and Ki is the rate with test compound at concentration [I] (Conde-Frieboes, K. et al. J. Am. Chem. Soc. 1996, 118, 5519-5525). NT=no data available.

The target of data set [3] is T2, FAAH. Briefly: FAAH inhibition IC50, human. Set-up: expressed in transfected cells; host or cells: COS-7 (transient transfection), solubilized membrane extracts. To be noted: inhibition at 3-5 test compound concentrations. Type of data set: biochemical. On the procedure:
as §1, §2

[4] abbreviates: purified recombinant rat FAAH expressed in E. coli, 14C-oleamide hydrolysis, pH 9.0, 20-23° C.

Consider `O=C(CCc1ccc(OCc2ccccc2)cc1)c1ncc(-c2ccccn2)o1` [Example 11a, 1-Oxo-1-[5-(2-pyridyl)oxazol-2-yl]-3-(4-(benzyloxy)phenyl)propane], for which the melting point lay in the range of 99 to 100 °C. The Ki in data set [1] (setting [4]) was found to be 1.3 nM. Further, on FAAH [2], the Ki was found to be 0.45 nM.
With `O=C(CCc1ccc(COc2ccccc2)cc1)c1ncc(-c2ccccn2)o1` [Example 11e, 3-(4-(Phenoxymethyl)phenyl)-1-(5-(pyridin-2-yl)oxazol-2-yl)propan-1-one], the Ki in data set [1] (setting [4]) is 1 nM; on FAAH [2], 5 nM.
On the same counts, the results for `O=C(CCc1ccc(OCc2ccccc2)cc1)c1nc2ncccc2o1` [Example 11k, 3-(4-(Benzyloxy)phenyl)-1-(oxazolo[4,5-b]pyridin-2-yl)propan-1-one] are 0.38 nM and 0.6 nM.
For the compound `O=C(O)c1ccc(-c2cnc(C(=O)CCc3ccc(COc4ccccc4)cc3)o2)nc1` [Example 19, 6-{2-[3-(4-Phenoxymethyl-phenyl)-propionyl]-oxazol-5-yl}-nicotinic acid], in data set [1] (setting [4]), the Ki is 4.6 nM. Also, the IC50 on rat FAAH came out at 2.5 nM; against FAAH [3] it was 0.8 nM.
For `N#Cc1cccc(-c2cnc(C(=O)CCc3ccc(-c4ccccc4)cc3)o2)n1` [Example 20, 6-[2-(3-Biphenyl-4-yl-propionyl)-oxazol-5-yl]-pyridine-2-carbonitrile], in data set [1] (setting [4]), the Ki stood at 3 nM. The IC50 on rat FAAH was determined as 2 nM; against FAAH [3] it was 11 nM.
Take `COC(=O)c1cccc(-c2cnc(C(=O)CCc3ccc(-c4ccccc4)cc3)o2)n1` [Example 21, 6-[2-(3-Biphenyl-4-yl-propionyl)-oxazol-5-yl]-pyridine-2-carboxylic acid methyl ester]: the Ki (in data set [1] (setting [4]); on FAAH [2]) was 1.2 nM in each case. Further, the IC50 on rat FAAH was 0.5 nM; on FAAH [3], 3 nM.
Turning to `CCOC(=O)c1cccc(-c2cnc(C(=O)CCc3ccc(-c4ccccc4)cc3)o2)n1` [Example 22, 6-[2-(3-Biphenyl-4-yl-propionyl)-oxazol-5-yl]-pyridine-2-carboxylic acid ethyl ester], the Ki in data set [1] (setting [4]) was 3 nM. The IC50 at rat FAAH and on FAAH [3] was 2 nM throughout.
On to `COC(=O)c1ccc(-c2cnc(C(=O)CCc3ccc(-c4ccccc4)cc3)o2)nc1` [Example 23, 6-[2-(3-Biphenyl-4-yl-propionyl)-oxazol-5-yl]-nicotinic acid methyl ester], for which the Ki in data set [1] (setting [4]) came out at 2.2 nM. In addition, the IC50 at rat FAAH was found to be 8 nM; at FAAH [3] it was 5 nM.
Regarding `O=C(O)c1cccc(-c2cnc(C(=O)CCc3ccc(-c4ccccc4)cc3)o2)n1` [Example 24, 6-[2-(3-Biphenyl-4-yl-propionyl)-oxazol-5-yl]-pyridine-2-carboxylic acid], the Ki in data set [1] (setting [4]) was found to be 22 nM. The results for the IC50 at rat FAAH and on FAAH [3] were 0.6 nM and 2 nM, respectively.
`O=C(O)c1ccc(-c2cnc(C(=O)CCc3ccc(-c4ccccc4)cc3)o2)nc1` [Example 25, 6-[2-(3-Biphenyl-4-yl-propionyl)-oxazol-5-yl]-nicotinic acid]: the Ki in data set [1] (pH 9) was 14 nM. Also, the IC50 amounted to 0.3 nM against rat FAAH and 0.5 nM against FAAH [3].
Turning to `NC(=O)c1cccc(-c2cnc(C(=O)CCc3ccc(-c4ccccc4)cc3)o2)n1` [Example 26, 6-[2-(3-Biphenyl-4-yl-propionyl)-oxazol-5-yl]-pyridine-2-carboxylic acid amide], the Ki in data set [1] (setting [4]) came out at 1.2 nM. The IC50 was 0.5 nM at rat FAAH and 2 nM against FAAH [3].
In the case of `NC(=O)c1ccc(-c2cnc(C(=O)CCc3ccc(-c4ccccc4)cc3)o2)nc1` [Example 27, 6-[2-(3-Biphenyl-4-yl-propionyl)-oxazol-5-yl]-nicotinamide], the Ki in data set [1] (setting [4]) was 1.5 nM. Also, the IC50 turned out to be 0.5 nM against rat FAAH and 0.4 nM on FAAH [3].
`COC(=O)c1cc(-c2cnc(C(=O)CCc3ccc(-c4ccccc4)cc3)o2)ccn1` [Example 28, 4-[2-(3-Biphenyl-4-yl-propionyl)-oxazol-5-yl]-pyridine-2-carboxylic acid methyl ester]: in data set [1] (setting [4]), the Ki came out at 1.6 nM. Besides, the IC50 stood at 1.5 nM against rat FAAH and 29 nM against FAAH [3].
The corresponding values for `O=C(O)c1cc(-c2cnc(C(=O)CCc3ccc(-c4ccccc4)cc3)o2)ccn1` [Example 29, 4-[2-(3-Biphenyl-4-yl-propionyl)-oxazol-5-yl]-pyridine-2-carboxylic acid] are 50 nM, 3 nM and 7 nM.
Turning to `O=C(CCc1ccc(-c2ccccc2)cc1)c1ncc(-c2ccncc2)o1` [Example 30, 3-Biphenyl-4-yl-1-(5-pyridin-4-yl-oxazol-2-yl)-propan-1-one], the Ki in data set [1] (setting [4]) is 2.3 nM. Also, the IC50 on rat FAAH turned out to be 3 nM; on FAAH [3], 16 nM.
For the compound `O=C(CCc1ccc(-c2ccccc2)cc1)c1ncc(-c2cccnc2)o1` [Example 31, 3-Biphenyl-4-yl-1-(5-pyridin-3-yl-oxazol-2-yl)-propan-1-one], the Ki in data set [1] (setting [4]) came to 1.1 nM. Also, the figures for the IC50 at rat FAAH and against FAAH [3] were 2 nM and 22 nM, respectively.
On the same counts, the results for `COC(=O)c1ccc(-c2cnc(C(=O)CCc3ccc(-c4ccccc4)cc3)o2)cn1` [Example 32, 5-[2-(3-Biphenyl-4-yl-propionyl)-oxazol-5-yl]pyridine-2-carboxylic acid methyl ester] are 0.6 nM, 17 nM and 500 nM.
Regarding `O=C(O)c1ccc(-c2cnc(C(=O)CCc3ccc(-c4ccccc4)cc3)o2)cn1` [Example 33, 5-[2-(3-Biphenyl-4-yl-propionyl)-oxazol-5-yl]-pyridine-2-carboxylic acid], in data set [1] (setting [4]), the Ki is 44 nM. Also, the half-maximal inhibitory concentration (IC50) at rat FAAH is 44 nM; against FAAH [3], 580 nM.
For `COC(=O)c1cccc(-c2cnc(C(=O)CCc3ccc(-c4ccc(CN5CCOCC5)cc4)cc3)o2)n1` [Example 35, 6-{2-[3-(4′-Morpholin-4-ylmethyl-biphenyl-4-yl)-propionyl]-oxazol-5-yl}-pyridine-2-carboxylic acid methyl ester], in data set [1] (setting [4]), the Ki was found to be 31 nM. Moreover, the IC50 on rat FAAH stood at 2 nM; against FAAH [3], 21 nM.
On the same counts, the results for `O=C(O)c1cccc(-c2cnc(C(=O)CCc3ccc(-c4ccc(CN5CCOCC5)cc4)cc3)o2)n1` [Example 41, 6-{2-[3-(4′-Morpholin-4-ylmethyl-biphenyl-4-yl)-propionyl]-oxazol-5-yl}-pyridine-2-carboxylic acid] are 150 nM, 3 nM and 9 nM.
Regarding `O=C(CCc1ccc(-c2ccccc2)cc1)c1ncc(-c2cccc(-c3nnn[nH]3)n2)o1` [Example 46, 3-Biphenyl-4-yl-1-{5-[6-(1H-tetrazol-5-yl)-pyridin-2-yl]-oxazol-2-yl}-propan-1-one], the Ki in data set [1] (setting [4]) was determined as 27 nM. In addition, the IC50 at rat FAAH stood at 9 nM; against FAAH [3], 83 nM.
